Measured values reported in US20250082635A1 (Janssen Pharmaceutica NV, priority 2023, published 2025).
Read-outs that look alike come from different tables or passages of the source.

Tests used:
clinical [1] = details: both, human, plasma, % fu, fraction unbound (mean (SD)), Day 1, 2 h
Protocol: (§1) Participants entered the study site on the morning of Day 1 and remained there until after collection of the 96 hours PK sample on Day 5. […] In addition, blood samples for determination of the plasma protein binding (PPB) were collected.
(§2) For all cohorts, 2-hours fraction unbound values were used to derive the unbound plasma concentrations and these unbound concentrations were used to derive unbound PK parameters.

plasma protein = test: clinical; details: Day 1, 2 h
Protocol: as §1, §2

[2] = for mean AUC∞ compared to normal hepatic function / mean Cmax compared to normal hepatic function / mean Cmax,unbound compared to normal hepatic function: arithmetic means
Source text: (§3) Participants were screened for eligibility for study entry. The diagnosis of hepatic impairment was based on medical history, a Child-Pugh Clinical Assessment Score of 5 to 6 (Grade A, mild hepatic impairment), 7 to 9 (Grade B, moderate hepatic impairment), and 10 to 15 (Grade C, severe hepatic impairment), and the presence of physical signs (liver firmness to palpitation, splenic enlargement, spider angioma, palmar erythema, parotid hypertrophy, testicular atrophy, or gynecomastia) or other modalities (computed tomography, ultrasound, magnetic resonance imaging, radionuclide liver/spleen scan or abdominal laparoscopy, or liver biopsy). The underlying disease leading to hepatic impairment was documented (e.g., hepatitis B, hepatitis C, alcoholic steatohepatitis, nonalcoholic fatty liver disease [hereditary/metabolic], or other). Hepatic encephalopathy grading was done by the Principal Investigator. The individual components of the Child-Pugh Clinical Assessment Score were documented. Participants with liver transplant were excluded.
(§4) The clinical study of Example 1 consisted of a screening phase (within 21 days before study intervention administration); an open-label treatment phase (Day 1 to Day 5) including the end-of-study (EOS) or withdrawal assessments (performed on Day 5 or upon early withdrawal). The study duration for each participant was approximately 4 weeks from screening (Day-21 to Day-1) to EOS assessments.
(§5) Healthy men and women between 18 and 79 years of age, inclusive; with a body mass index (BMI) between 18 and 38 kg/m^2, inclusive, and a body weight of not less than 50 kg were enrolled in the study according to their hepatic function. The degree of hepatic impairment was based on Child Pugh's classification. Using this classification, participants were grouped on the basis of 2 clinical features (hepatic encephalopathy and ascites) and 3 laboratory-based parameters (albumin, bilirubin, and prothrombin time).
(§6) The study included 24 human patients divided into 3 different cohorts: • Cohort 1:8 healthy participants with normal hepatic function and no evidence of liver damage and no evidence of liver damage, • Cohort 2:8 participants with mild hepatic impairment (having a Child-Pugh score of 5 to 6), and • Cohort 3:8 participants with moderate hepatic impairment (Child-Pugh score of 7 to 9).
(§7) Based on hepatic impairment classified during screening, 8 participants with mild hepatic impairment (Cohort 2) and 8 participants with moderate hepatic impairment (Cohort 3) were enrolled. After 8 participants each in Cohort 2 and Cohort 3 had completed study related procedures including the 96 hours PK sample, participants with normal hepatic function (Cohort 1) were enrolled. A group matching procedure was used to demographically match healthy participants having normal hepatic function with respect to sex, age, and weight to the participants enrolled in Cohort 2 and Cohort 3. […] Participants in the control group (Cohort 1) who tested positive for Hepatitis B surface antigen (HbsAg) or Hepatitis C antibodies were not permitted in the study.
(§8) In the normal hepatic function group (Cohort 1), at least 3 participants with an individual value above and at least 3 participants with an individual value below the mean age/mean body weight values of the combined mild (Cohort 2) and moderate (Cohort 3) hepatic impairment groups were enrolled. Two to 4 females were enrolled in each of the cohorts.
(§9) Participants remained in supine position from the predose assessments until 4-hour postdose but were allowed short upright stints for pressing needs (e.g., bathroom visits) and during consumption of meal.

clinical [3] = details: both, human, in vivo
Source text: as §3, §4, §5, §6, §7, §8, §9

[4] = Estimated contribution of active metabolites to efficacy of seltorexant; details: active metabolite
[5] = 10 mg, Cohort 3 moderate hepatic impairment
[6] = 20 mg, Cohort 1 normal hepatic function
[7] = 20 mg, Cohort 2 mild hepatic impairment
[8] = Cohort 1 normal hepatic function
[9] = Cohort 2 mild hepatic impairment
[10] = Cohort 3 moderate hepatic impairment
[11] = dose normalized moderate hepatic impairment vs normal, total
[12] = dose normalized moderate hepatic impairment vs normal, unbound
[13] = mild hepatic impairment vs normal, total
[14] = mild hepatic impairment vs normal, unbound
[15] = 10 mg, AUClast, geometric mean, Cohort 3 (Test) moderate hepatic impairment, 10 mg dose normalized to 20 mg, total
[16] = 10 mg, AUClast, geometric mean, Cohort 3 (Test) moderate hepatic impairment, 10 mg dose normalized to 20 mg, unbound
[17] = 10 mg, AUC∞ (mean (SD)), Cohort 3 moderate hepatic impairment, 10 mg dose normalized to 20 mg, total in plasma
[18] = 10 mg, AUC∞, geometric mean, Cohort 3 (Test) moderate hepatic impairment, 10 mg dose normalized to 20 mg, total
[19] = 10 mg, AUC∞, geometric mean, Cohort 3 (Test) moderate hepatic impairment, 10 mg dose normalized to 20 mg, unbound
[20] = 10 mg, Cmax, geometric mean, Cohort 3 (Test) moderate hepatic impairment, 10 mg dose normalized to 20 mg, total
[21] = 10 mg, Cmax, geometric mean, Cohort 3 (Test) moderate hepatic impairment, 10 mg dose normalized to 20 mg, unbound
[22] = 10 mg, […], Cohort 3 moderate hepatic impairment, 10 mg dose normalized to 20 mg, total in plasma
[23] = 20 mg, AUClast, geometric mean, Cohort 1 (Reference) normal hepatic function, total
[24] = 20 mg, AUClast, geometric mean, Cohort 1 (Reference) normal hepatic function, unbound
[25] = 20 mg, AUClast, geometric mean, Cohort 2 (Test) mild hepatic impairment, total
[26] = 20 mg, AUClast, geometric mean, Cohort 2 (Test) mild hepatic impairment, unbound
[27] = 20 mg, AUC∞, geometric mean, Cohort 1 (Reference) normal hepatic function, total
[28] = 20 mg, AUC∞, geometric mean, Cohort 1 (Reference) normal hepatic function, unbound
[29] = 20 mg, AUC∞, geometric mean, Cohort 2 (Test) mild hepatic impairment, total
[30] = 20 mg, AUC∞, geometric mean, Cohort 2 (Test) mild hepatic impairment, unbound
[31] = 20 mg, Cmax, geometric mean, Cohort 1 (Reference) normal hepatic function, total
[32] = 20 mg, Cmax, geometric mean, Cohort 1 (Reference) normal hepatic function, unbound
[33] = 20 mg, Cmax, geometric mean, Cohort 2 (Test) mild hepatic impairment, total
[34] = 20 mg, Cmax, geometric mean, Cohort 2 (Test) mild hepatic impairment, unbound

Structure (SMILES): Cc1cc(CO)nc(N2CC3CN(C(=O)c4c(F)cccc4-n4nccn4)CC3C2)n1 (stereo not shown) [M12]
- fraction unbound at 2 h (clinical [1]; [5]): 0.114
- fraction unbound at 2 h (clinical [1]; [6]): 0.0545
- fraction unbound at 2 h (clinical [1]; [7]): 0.0707
- % fb (mean (SD)) (plasma protein; [8]): 94.6 (1.91) %
- % fb (mean (SD)) (plasma protein; [9]): 92.9 (4.58) %
- % fb (mean (SD)) (plasma protein; [10]): 88.6 (3.84) %
- mean AUC∞ compared to normal hepatic function [2, 11]: comparable
- mean Cmax compared to normal hepatic function [2, 11]: 0.78 fold
- mean Cmax,unbound compared to normal hepatic function [2, 12]: 1.71 fold
- Cmax compared to normal hepatic function, based on GMR [2, 11]: 0.79 fold
- mean AUC∞ compared to normal hepatic function [2, 13]: 1.80 fold
- mean Cmax compared to normal hepatic function [2, 13]: comparable
- mean Cmax,unbound compared to normal hepatic function [2, 14]: 1.46 fold
- Cmax compared to normal hepatic function, based on GMR [2, 13]: ~1.11 fold
- AUC∞,unbound compared to normal hepatic function, based on GMR [2, 14]: ~1.99 fold
- AUC(0-t) (clinical [3]; [15]): 2380 ng·h/mL
- AUC(0-t) (clinical [3]; [16]): 258 ng·h/mL
- AUC(0-inf) (clinical [3]; [17]): 2580 ng·h/mL
- AUC(0-inf) (clinical [3]; [18]): 2400 ng·h/mL
- AUC(0-inf) (clinical [3]; [19]): 262 ng·h/mL
- Cmax (clinical [3]; [20]): 253 ng/mL
- Cmax (clinical [3]; [21]): 27.5 ng/mL
- AUC(0-t) (clinical [3]; [22]): 2550 ng·h/mL
- Cmax (clinical [3]; [22]): 261 ng/mL
- AUC(0-t) (clinical [3]; [23]): 2310 ng·h/mL
- AUC(0-t) (clinical [3]; [24]): 118 ng·h/mL
- AUC(0-t) (clinical [3]; [25]): 3950 ng·h/mL
- AUC(0-t) (clinical [3]; [26]): 234 ng·h/mL
- AUC(0-inf) (clinical [3]; [27]): 2320 ng·h/mL
- AUC(0-inf) (clinical [3]; [28]): 119 ng·h/mL
- AUC(0-inf) (clinical [3]; [29]): 3980 ng·h/mL
- AUC(0-inf) (clinical [3]; [30]): 236 ng·h/mL
- Cmax (clinical [3]; [31]): 320 ng/mL
- Cmax (clinical [3]; [32]): 16.3 ng/mL
- Cmax (clinical [3]; [33]): 355 ng/mL
- Cmax (clinical [3]; [34]): 21 ng/mL
- AUC(0-t) (clinical [3]; po, 10 mg): 1280 ng·h/mL
- Cmax (clinical [3]; po, 10 mg): 131 ng/mL
- Tmax (clinical [3]; po, 10 mg): 2.25 h
- half-life (clinical [3]; po, 10 mg): 4.07 h
- AUC(0-inf) (clinical [3]; po, 20 mg): 4860 ng·h/mL
- AUC(0-t) (clinical [3]; po, 20 mg): 4830 ng·h/mL
- Cmax (clinical [3]; po, 20 mg): 368 ng/mL
- half-life (clinical [3]; po, 20 mg): 3.44 h

Structure (SMILES): Cc1nc(N2CC3CN(C(=O)c4c(F)cccc4-n4nccn4)CC3C2)nc(C)c1O (stereo not shown) [M16]
- fraction unbound at 2 h (clinical [1]; [5]): 0.0901
- fraction unbound at 2 h (clinical [1]; [6]): 0.04
- fraction unbound at 2 h (clinical [1]; [7]): 0.0568
- % fb (mean (SD)) (plasma protein; [8]): 96.0 (1.43) %
- % fb (mean (SD)) (plasma protein; [9]): 94.3 (3.95) %
- % fb (mean (SD)) (plasma protein; [10]): 91.0 (3.14) %
- contribution to efficacy of seltorexant (activity) [4]: < 4%
- mean AUC∞ compared to normal hepatic function [2, 11]: 0.74 fold
- mean Cmax compared to normal hepatic function [2, 11]: 0.62 fold
- AUC∞ compared to normal hepatic function, based on GMR [2, 11]: ~0.83 fold
- AUClast,unbound compared to normal hepatic function, based on GMR [2, 12]: ~1.82 fold
- Cmax,unbound compared to normal hepatic function, based on GMR [2, 12]: ~1.48 fold
- mean AUC∞ compared to normal hepatic function [2, 13]: comparable
- mean Cmax compared to normal hepatic function [2, 13]: 0.75 fold
- AUClast,unbound compared to normal hepatic function, based on GMR [2, 14]: ~1.25 fold
- Cmax,unbound compared to normal hepatic function, based on GMR [2, 14]: 0.96 fold
- AUC(0-t) (clinical [3]; [15]): 620 ng·h/mL
- AUC(0-t) (clinical [3]; [16]): 53 ng·h/mL
- AUC(0-inf) (clinical [3]; [17]): 683 ng·h/mL
- AUC(0-inf) (clinical [3]; [18]): 674 ng·h/mL
- AUC(0-inf) (clinical [3]; [19]): 57.6 ng·h/mL
- Cmax (clinical [3]; [20]): 41.8 ng/mL
- Cmax (clinical [3]; [21]): 3.57 ng/mL
- AUC(0-t) (clinical [3]; [22]): 631 ng·h/mL
- Cmax (clinical [3]; [22]): 43 ng/mL
- AUC(0-t) (clinical [3]; [23]): 778 ng·h/mL
- AUC(0-t) (clinical [3]; [24]): 29 ng·h/mL
- AUC(0-t) (clinical [3]; [25]): 783 ng·h/mL
- AUC(0-t) (clinical [3]; [26]): 36.3 ng·h/mL
- AUC(0-inf) (clinical [3]; [27]): 812 ng·h/mL
- AUC(0-inf) (clinical [3]; [28]): 30.3 ng·h/mL
- AUC(0-inf) (clinical [3]; [29]): 807 ng·h/mL
- AUC(0-inf) (clinical [3]; [30]): 37.4 ng·h/mL
- Cmax (clinical [3]; [31]): 64.6 ng/mL
- Cmax (clinical [3]; [32]): 2.41 ng/mL
- Cmax (clinical [3]; [33]): 50 ng/mL
- Cmax (clinical [3]; [34]): 2.32 ng/mL
- AUC(0-inf) (clinical [3]; po, 10 mg): 342 ng·h/mL
- AUC(0-t) (clinical [3]; po, 10 mg): 315 ng·h/mL
- Cmax (clinical [3]; po, 10 mg): 21.5 ng/mL
- Tmax (clinical [3]; po, 10 mg): 2.5 h
- half-life (clinical [3]; po, 10 mg): 10.2 h
- AUC(0-inf) (clinical [3]; po, 20 mg): 851 ng·h/mL
- AUC(0-t) (clinical [3]; po, 20 mg): 827 ng·h/mL
- Cmax (clinical [3]; po, 20 mg): 51.5 ng/mL
- Tmax (clinical [3]; po, 20 mg): 2 h
- half-life (clinical [3]; po, 20 mg): 13.4 h
